# From US20210145801A1, “THERAPY FOR PROTEIN MISFOLDING DISEASE” (WREN THERAPEUTICS LIMITED, priority 2018, published 2021)
# Experiments:
# Aβ42 = target: T1, Aβ42 (Homo sapiens, UniProt P05067); test: ThT kinetic assay of Aβ42 aggregation (unseeded); format: biochemical
# T1 construct: made in house; host or cells: E. coli BL21 Gold (DE3)
# Description: The recombinant Aβ(M1-42) peptide ([…]-SNKGAIIGLMVGGVVIA [SEQ ID NO: 1]), here called Aβ42, was expressed in the E. coli BL21 Gold (DE3) strain (Stratagene, Calif., U.S.A.) and purified as described previously with slight modifications. Briefly, the purification procedure involved sonication of E. coli cells, dissolution of inclusion bodies in 8 M urea, and ion exchange in batch mode on diethylaminoethyl cellulose resin and lyophylization. The lyophilized fractions were further purified using Superdex 75 HR 26/60 column (GE Healthcare, Buckinghamshire, U.K.) and eluates were analyzed using SDS-PAGE for the presence of the desired protein product. The fractions containing the recombinant protein were combined, frozen using liquid nitrogen, and lyophilized again.
# Except for Netoglitazone, which was custom synthesised by GVK BIO, all small molecules were purchased with a purity greater than 99%. Small molecules were first solubilized in 100% DMSO to a concentration of 5 mM, and then diluted in the peptide solution to reach a final DMSO concentration of maximum 1-3%. We verified that the addition of DMSO in the reaction mixture has no effect on Aβ42 aggregation.
# Solutions of monomeric peptides were prepared by dissolving the lyophilized Aβ42 peptide in 6 M GuHCl. Monomeric forms were purified from potential oligomeric species and salt using a Superdex 75 10/300 GL column (GE Healthcare) at a flowrate of 0.5 mL/min, and were eluted in 20 mM sodium phosphate buffer, pH 8 supplemented with 200 μM EDTA and 0.02% NaN3. The centre of the peak was collected, and the peptide concentration was determined from the absorbance of the integrated peak area using ε280=1490 L mol^−1 cm^−1. The obtained monomer was diluted with buffer to the desired concentration and supplemented with 20 μM Thioflavin T (ThT) from a 1 mM stock. All samples were prepared in low binding Eppendorf tubes on ice using careful pipetting to avoid introduction of air bubbles. Each sample was then pipetted into multiple wells of a 96-well half-area, low-binding, clear bottom and PEG coating plate (Corning 3881), 80 μL per well. Aβ42 kinetics have been performed in the absence or the presence of Netoglitazone, Mitoglitazone, Rosiglotazone, Rivoglitazone, Pioglitazone, Ciglitazone, Englitazone, Darglitazone, Troglitazone and Balaglitazone.
# The time evolution of the total fibril mass concentration is described as a function only of the initial conditions and the rate constants of the system by the integrated rate law given by Eq. (54) in Cohen et al., J Chem Phys 135, 065106, 2011.
# These are related to the rate of formation of new aggregates through primary pathways λ=√{square root over (2k+knm(0)^n^c)} and through secondary pathways κ=√{square root over (2k+k2m(0)^n^2^+1)}, where the initial concentration of soluble monomers is denoted by m(0), nc and n2 describe the dependencies of the primary and secondary pathways on the monomer concentration (nc=n2=2 for Aβ42), and kn, k+ and k2 are the rate constants of the primary nucleation, elongation and secondary nucleation, respectively (Cohen et al., Proc Natl Acad Sci USA, 110(24), 9758-63, 2013).
# Inhibitors can interfere with the aggregation process by inhibiting one or more of the individual microscopic steps.
# Aβ plaques = test: Aβ plaque quantification in APPPS1 transgenic mice; format: in vivo; conditions: 75 mg/kg/day once daily for 90 days from 60 days of age
# Procedure: APPPS1 transgenic mice were used in the study, which co-express the Swedish mutation […] and PS1 mutation L166P under the control of the neuron-specific Thy-1 promoter on a C57BL/6 genetic background. APPPS1 mice were habituated ahead of the study to voluntarily drink a condensed milk formulation from a pipette. The condensed milk used in the study is commercially available (Migros) and contains milk, sugar, stabilizer E339. Body weight was measured ahead of commencing the study to calculate the dose of Netoglitazone for each mouse and to calculate the total blood volume. Mice aged 60 days old were then dosed once daily with a pipette for 90 days. The pipette contained 40-80 μL consisting of either condensed milk (2 ml/kg/day) only (placebo cohort) or condensed milk (2 ml/kg/day) and Netoglitazone (75 mg/kg/day). Blood was collected via retro-orbital sampling to monitor the concentration of Netoglitazone after 7 days and 28 days. Visual monitoring of the mice and measurement of body weight were conducted daily and every other week respectively. At the end of the experiment (i.e. after 90 days of once daily treatment such that mice were 150 days old), mice were euthanized and their brains were analyzed as outlined below. […]
# The image files were analysed using custom-coded software. […]
# T1 sequence (P05067 671-713): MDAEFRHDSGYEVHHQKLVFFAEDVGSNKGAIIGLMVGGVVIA
smiles,measurement,setting,value
O=C1NC(=O)C(Cc2ccc3cc(OCc4ccccc4F)ccc3c2)S1 (stereo not drawn) [Netoglitazone],Effect on rate constants of primary (knk+) and secondary (k2k+) pathways,"Aβ42; 2 μM Aβ42, unseeded, fit of rate laws",can affect both nucleation pathways in Aβ42 aggregation to different extents
same,Delay of Aβ42 aggregation (ThT fibril formation),"Aβ42; 2 μM Aβ42, range of Netoglitazone concentrations",substantial delay in Aβ42 aggregation was observed in a concentration-dependent manner
same,Relative number of Aβ plaques in brain vs placebo,Aβ plaques,decrease in the relative number of Aβ plaques
